Experimental findings from patent publication US10391173B2, “Anti-ar agent and radiation therapy for androgen receptor positive cancer” (The Cleveland Clinic Foundation, priority 2016, dated 2019) are described below.

The test system of data set [1] is MDAMB453 cells. The note with it: steroid-deprived media supplemented with 1 nM DHT for 24 hours.
Protocol: (d) Cells were cultured in hormone-proficient (FBS) media for 24 hours −/+ ENZ and then treated with IR: mock (ϕ 3 Gy (HMC18 and MDAMB453), or 2 Gy (C4-2). Cells were cultured in steroid-deprived media for 48 hours, treated −/+ DHT for 24 hours, and then treated with IR: mock (ϕ), 3 Gy (HMC18 and MDAMB453), or 2 Gy (C4-2). γH2AX, HDAC1, and actin levels were measured at the indicated time points. Relative intensity of γH2AX was calculated by ImageJ64. (e) MDAMB453 cells were cultured in steroid-replete, steroid-deficient, or steroid-deficient with 1 nM DHT for 24 hours, then treated with irradiation. Cells were harvested and expression of γDNAPKcs was analyzed.
Whole cell lysates were prepared using M-PER lysis buffer and clarified by centrifugation. Proteins were separated by SDS-PAGE and transferred onto 0.45 μM nitrocellulose membranes (Maine Manufacturing; Sanford, Me.). After primary antibody incubation for 1-2 hours at room temperature, washings, and incubation with secondary antibodies, blots were developed with a chemoluminescence system (Amersham/GE Healthcare). For γH2AX measurements, proteins were transferred onto 0.2 μM nitrocellulose (Bio-Rad).
The phosphorylation of DNAPKcs on Ser2056 was examined, which is indicative of activated DNAPKcs, in MDAMB453 cells.
The subject of data set [2] is MDAMB453 cells. As to the kind of experiment: Growth survival assay after IR with DHT or ENZ pretreatment. The class given is cell-based, human.
Protocol: (a) (Top) Cells were cultured in steroid-deprived media −/+ DHT for 24 hours and then treated with IR: mock (ϕ), 4 Gy, or 6 Gy. Cells were then supplemented with hormone-proficient media at 48 hours post-IR. Cell number was determined on day 14-21. (Bottom) Cells were cultured in hormone-proficient media for 24 hours without or with enzalutamide (ENZ) and then treated with IR; mock (ϕ) or 4 Gy. Error bars represent normalized s.e.m of at least three experiments. (b) MCF7, BT474, CAMA1, HCC202, and MDAMB453 cells were treated with ENZ, ENZ+IR, DHT, or DHT+IR as in (a). […] Error bars represent normalized s.e.m of at least three experiments and the Student's t-test was used for statistical analysis. *, P<0.05. […]
(§2) Cells were plated using a Multidrop Combi liquid handler (Thermo Fisher) in at least quadruplicates for each time point at three cell densities (range 25-225 cells per well) in a white 384-well plate (Corning, N.Y.). […] Relative luminescence units were measured using an Envision multilabel plate reader (Perkin Elmer) with a measurement time of 0.1 seconds. Luminescence signal is proportional to the amount of ATP present. […] The luminescence signal was plotted as a function of cell density and a cell density within the linear range for luminescence (or growth) was selected to generate integral survival for each cell line. […]
Data set [3] concerns MDAMB453 cells. As to the kind of experiment: γH2AX formation and resolution kinetics (Western blot). The class given is cell-based, human. The note with it: 3 Gy; effect persisted at 24 hours. A general note: Immunoblotting shows a protein as a band on a membrane.
For data set [4], the system named is MDAMB453 cells. As to the kind of experiment: Neutral comet assay. The class given is cell-based, human. Particulars: pretreated 24 hours prior to 15 Gy of irradiation; ENZ 20 μM. The method, then: (§1) Single-cell gel electrophoresis was conducted in alkaline or neutral buffer according to the manufacturer's instructions, Trevigen (Gaithersburg, Md.). Slides were blinded and enumerated by a single user.

Data set [5] concerns C4-2 prostate cancer cells. Particulars: AR-positive cells; 2 Gy.
Protocol: (a) (Top) Cells were cultured in steroid-deprived media −/+ DHT for 24 hours and then treated with IR: mock (ϕ), 4 Gy, or 6 Gy. Cells were then supplemented with hormone-proficient media at 48 hours post-IR. […] (Bottom) Cells were cultured in hormone-proficient media for 24 hours without or with enzalutamide (ENZ) and then treated with IR; mock (ϕ) or 4 Gy. Error bars represent normalized s.e.m of at least three experiments. […] Error bars represent normalized s.e.m of at least three experiments and the Student's t-test was used for statistical analysis. *, P<0.05. […] Error bars represent s.e.m of at least three experiments and the Student's t-test was used for statistical analysis. *, P<0.05. (d) Cells were cultured in hormone-proficient (FBS) media for 24 hours −/+ ENZ and then treated with IR: mock (ϕ 3 Gy (HMC18 and MDAMB453), or 2 Gy (C4-2). Cells were cultured in steroid-deprived media for 48 hours, treated −/+ DHT for 24 hours, and then treated with IR: mock (ϕ), 3 Gy (HMC18 and MDAMB453), or 2 Gy (C4-2). γH2AX, HDAC1, and actin levels were measured at the indicated time points. Relative intensity of γH2AX was calculated by ImageJ64. (e) MDAMB453 cells were cultured in steroid-replete, steroid-deficient, or steroid-deficient with 1 nM DHT for 24 hours, then treated with irradiation. Cells were harvested and expression of γDNAPKcs was analyzed. […]
For data set [6], the system named is MCF7, BT474, CAMA1, HCC202, MDAMB453, HMC18 cells. As to the kind of experiment: Growth survival assay after IR across several breast cancer cell lines. The class given is cell-based, human. Particulars: only in cell lines that expressed AR, independent of ER and ErbB2 activity.
Protocol: (a) (Top) Cells were cultured in steroid-deprived media −/+ DHT for 24 hours and then treated with IR: mock (ϕ), 4 Gy, or 6 Gy. Cells were then supplemented with hormone-proficient media at 48 hours post-IR. Cell number was determined on day 14-21. (Bottom) Cells were cultured in hormone-proficient media for 24 hours without or with enzalutamide (ENZ) and then treated with IR; mock (ϕ) or 4 Gy. Error bars represent normalized s.e.m of at least three experiments. (b) MCF7, BT474, CAMA1, HCC202, and MDAMB453 cells were treated with ENZ, ENZ+IR, DHT, or DHT+IR as in (a). HMC18 cells were treated similarly but were profiled by clonogenic survival assays. […]
as §2
The subject of the next data set is BT474 cells. As to the kind of experiment: Neutral comet assay. The class given is cell-based, human. Particulars: irradiated (10 Gy) after 24 hours of treatment with ENZ (20 μM). The method, then:
FIG. 16: AR regulates DNA damage and repair in AR, ER positive cells.
as §1

A further data set deals with HMC18 cells. Put plainly: γH2AX formation and resolution kinetics (Western blot). Particulars: AR-negative cells; 3 Gy. The class given is cell-based, human.
Data set [7] concerns MDAMB453 orthotopic xenografts. As to the kind of experiment: MDAMB453 orthotopic xenograft study.
Protocol: (g) MDAMB453 cells were orthotopically injected into the mammary gland of NSG mice and block randomized into one of four treatment arms as shown. Tumor volume was measured daily. Error bars represent normalized s.e.m of at least seven mice in each treatment arm. *, P<0.05 compared with all other treatment conditions based on ANOVA and Tukey Contrasts. **, P<0.05 for interaction based on two-way ANOVA. […] This cohort received ENZ at 25 mg kg^−1. (i) Average weight for each arm in both cohorts was measured weekly. Data are expressed as the means±s.e. of at least seven mice in each treatment arm.
Female NSG mice, 6-8 weeks of age, were obtained from the Cleveland Clinic Biological Resources Unit facility. All mouse studies were conducted under a protocol approved by the Cleveland Clinic Institutional Animal Care and Use Committee MDAMB453 cells were resuspended in serum free media and injected into the inguinal mammary gland. Once tumors reached 200 mm^3, mice were block randomized and assigned to vehicle, enzalutamide, vehicle plus radiotherapy, or enzalutamide plus radiotherapy. Two cohorts consisting of these four arms underwent treatment. Vehicle consisted of a volume of 5 mL per kg of PEG-400 solution containing 1.5%/0 of DMSO for cohort 1 and 2.5% DMSO for cohort 2 via oral gavage daily. Cohort 1 received enzalutamide at 15 mg kg^−1 and cohort 2 received enzaluatmide at 25 mg kg^−1. Radiotherapy was delivered to a dose of 1.5 Gy in three fractions once tumor size reached 250 mm^3. Treatment was not blinded to the investigator. Tumor volume was measured daily. Mice were sacrificed once their tumors reached an approximate size of 1,000 mm^3 or at treatment days 21-28. The significance of the difference between treatment groups was assessed by one-way and the interaction between drug and radiation was measured by two-way ANOVA.

Turning to `C[C@]12CCC(=O)C[C@@H]1CC[C@@H]1[C@@H]2CC[C@]2(C)[C@@H](O)CC[C@@H]12` [DHT, Dihydrotestosterone], the “γDNAPKcs levels following irradiation” value in the data set on MDAMB453 cells [1] was “maintained γDNAPKcs at similar levels to those cells grown in the steroid-replete media”. In addition, the “Cell growth after radiation” value in the data set with MDAMB453 cells [2] (DHT re-supplementation in steroid-deprived media before radiation, IR 4 or 6 Gy) is recorded as “dose dependent rescue of cell growth”. Besides, the “Levels of γH2AX after irradiation” value in the data set with MDAMB453 cells [3] is “decreased”. Further, in the data set on MDAMB453 cells [4], the “DNA damage (double-strand breaks)” value is given as “decreased”. Besides, the γH2AX resolution result in data set [5] is “hastened γH2AX resolution”. Further, the “Protection or sensitization to radiation” value in data set [6] is listed as “protection”.
Turning to `CNC(=O)c1ccc(N2C(=S)N(c3ccc(C#N)c(C(F)(F)F)c3)C(=O)C2(C)C)cc1F` [ENZ, enzalutamide], in the data set on BT474 cells, the Double-strand breaks result is listed as “increased double-strand breaks”. Besides, the “Cell number after radiation” value with MDAMB453 cells [2] (hormone-proficient media, ENZ 24 hours before IR 4 Gy, compared to vehicle) is “decreased cell number compared to vehicle alone”. Besides, in the data set on HMC18 cells, the “Kinetics of γH2AX formation and resolution” value is reported as “unaffected”. Besides, the “Levels of γH2AX after irradiation” value in the data set on MDAMB453 cells [3] is on record as “increased shortly after irradiation”. Further, the “DNA damage (double-strand breaks)” value in the data set on MDAMB453 cells [4] is “increased DNA damage”. Besides, the “Protection or sensitization to radiation” value in [6] is “sensitization”. Besides, the “Tumor growth, ENZ alone” value in data set [7] (15 mg kg^−1, used alone) is listed as “no effects on tumor growth”. For the same compound, in data set [7] (15 mg kg^−1 plus radiotherapy), the “Tumor suppression, interaction with radiotherapy” value was “interactive tumor suppression with radiotherapy”. Moreover, the “Tumor growth, ENZ” value in data set [7] (25 mg kg^−1) is given as “Suppression of tumor growth”. In addition, the “Body weight loss during the course of treatment” value in data set [7] (ENZ 25 mg kg^−1 and radiation) is about 10%. Besides, the “Tumor growth, combination with ionizing radiation” value in data set [7] (ENZ at 15 mg kg^−1 or 25 mg kg^−1 plus ionizing radiation) is recorded as “more effective suppression of tumor growth than either modality alone”.
